According to patent US11999727B2 (Tango Therapeutics, Inc., priority 2020, dated 2024):

Tests used:
PRMT5 [1] = target: T1, PRMT5 (Homo sapiens, UniProt O14744); assay: PRMT5 biochemical IC50 assay with SAM as cofactor; details: PRMT5, SAM as cofactor; read-out: SAM IC50
T1 construct: purchased Viva (custom protein)

PRMT5 [2] = target: T1, PRMT5; assay: PRMT5 biochemical IC50 assay with no cofactor; details: PRMT5, no cofactor
Text: Table 1 indicates IC50 values (μM) against PRMT5 for exemplary compounds in the presence of SAM as cofactor, with no cofactor, and with MTA as cofactor, respectively (columns 4-6). […] Ki values can be calculated from the IC50 values as described in the Examples section. As detailed in the Examples section, for the assay performed in the presence of SAM, IC50=Ki×1.5 (Ki=IC50/1.5).

PRMT5 [3] = target: T1, PRMT5; assay: PRMT5 biochemical IC50 assay with MTA as cofactor; details: PRMT5, MTA as cofactor; read-out: MTA IC50
[4] = tested on: HAP1 MTAP-intact cell line; assay: SDMA in-cell western assay, HAP1 MTAP-intact; format: cell-based; details: Homo sapiens, HAP1, SDMA in-cell western, HAP1 MTAP-intact; read-out: MTAP HAP1 intact IC50
Procedure, shortened: (§1)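 MTAP-null vs endogenous-MTAP HAP1 isogenic cells; in-cell western SDMA readout; IC50 per line.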

[5] = tested on: HAP1 MTAP-deleted cell line; assay: SDMA in-cell western assay, HAP1 MTAP-deleted; format: cell-based; details: for IC50: Homo sapiens, HAP1, SDMA in-cell western, HAP1 MTAP-deleted; for MTAP intact/deleted ratio: IC50 ratio HAP1 MTAP-intact / HAP1 MTAP-deleted, SDMA in-cell western
Procedure, shortened: as §1

[6] = tested on: HAP1 MTAP-deleted cell line; assay: Viability assay, MTAP-deleted cell line; format: cell-based; details: Homo sapiens, read-out: HAP1 MTAP deleted viability
Text: Table 1 additionally indicates IC50 values in a viability assay for the MTAP-deleted cell line (column 10), indicating the effect of treatment with compound on cell survival.

[7] = read-out: HAP1 MTAP deleted IC50
[8] = HAP1, viability assay, MTAP-deleted cell line
[9] = HAP1, viability assay, HAP1 MTAP-deleted
[10] = read-out: HAP 1 MTAP deleted IC50
[11] = HAP1, viability IC50, MTAP-deleted cell line
[12] = read-out: No Cofactor/ rel IC50
[13] = HAP1, viability, HAP1 MTAP-deleted cell line

T1 sequence (O14744 whole entry): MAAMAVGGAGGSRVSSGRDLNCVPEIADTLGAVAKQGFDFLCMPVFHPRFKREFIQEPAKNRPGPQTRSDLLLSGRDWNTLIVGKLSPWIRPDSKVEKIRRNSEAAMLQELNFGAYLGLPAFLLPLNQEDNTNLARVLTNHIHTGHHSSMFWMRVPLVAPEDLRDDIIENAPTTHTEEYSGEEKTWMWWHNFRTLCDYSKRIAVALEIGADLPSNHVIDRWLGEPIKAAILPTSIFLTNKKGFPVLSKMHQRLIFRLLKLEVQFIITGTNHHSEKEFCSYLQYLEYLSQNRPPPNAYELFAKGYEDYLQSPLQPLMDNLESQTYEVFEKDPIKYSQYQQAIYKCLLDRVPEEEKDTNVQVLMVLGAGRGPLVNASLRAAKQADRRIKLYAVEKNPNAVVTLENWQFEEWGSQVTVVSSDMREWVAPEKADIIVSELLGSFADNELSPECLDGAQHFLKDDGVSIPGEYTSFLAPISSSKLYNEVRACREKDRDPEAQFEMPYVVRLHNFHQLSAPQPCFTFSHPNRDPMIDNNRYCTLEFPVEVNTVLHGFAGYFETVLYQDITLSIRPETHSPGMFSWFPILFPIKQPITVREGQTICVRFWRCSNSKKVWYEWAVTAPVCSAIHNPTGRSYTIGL
T1 sequence (Q9BQA1 whole entry partner): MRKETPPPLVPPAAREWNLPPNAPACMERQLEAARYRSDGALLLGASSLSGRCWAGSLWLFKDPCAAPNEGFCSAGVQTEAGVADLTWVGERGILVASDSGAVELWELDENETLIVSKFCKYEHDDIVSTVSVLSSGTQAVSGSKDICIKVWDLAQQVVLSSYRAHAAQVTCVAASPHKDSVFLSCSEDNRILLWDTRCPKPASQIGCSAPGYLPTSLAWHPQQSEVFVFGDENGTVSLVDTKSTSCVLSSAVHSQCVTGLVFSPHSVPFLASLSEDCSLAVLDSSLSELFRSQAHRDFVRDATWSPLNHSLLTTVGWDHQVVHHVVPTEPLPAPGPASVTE

SMILES | IC50 (PRMT5 [1]) [nM] | IC50 (PRMT5 [2]; read-out: No Cofactor/rel IC50) [nM] | IC50 (PRMT5 [3]) [nM] | IC50 [4] [nM] | IC50 [5, 7] [nM] | MTAP intact/deleted ratio [5] | IC50 [6, 8] [nM] | IC50 [6, 9] [nM] | IC50 [5, 10] [nM] | IC50 [6, 11] [nM] | IC50 (PRMT5 [2]; [12]) [nM] | IC50 [6, 13] [nM]
CNc1ccc([C@H]2CC[C@H](C)CN2C(=O)C(=O)Nc2cncc(C(N)=O)c2)cc1 [Compound 438, 5-[[2-[(2R,5S)-5-methyl-2-[4-(methylamino)phenyl]-1-piperidyl]-2-oxo-acetyl]amino]pyridine-3-carboxamide] | < 50 | < 50 | < 50 | > 1000 | < 100 | A (an IC50 ratio greater than or equal to 10 fold) | < 1000 |  |  |  |  | 
C[C@H]1CC[C@H](c2cc3[nH]ncc3s2)N(C(=O)C(=O)Nc2cncc(C(N)=O)c2)C1 (single isomer, unassigned) [Compound 873, 5-(2-(5-methyl-2-(1H-thieno[3,2-c]pyrazol-5-yl)piperidin-1-yl)-2-oxoacetamido)nicotinamide] | 50 to 500 | 50 to 500 | < 50 | > 1000 | < 100 | A (an IC50 ratio greater than or equal to 10 fold) |  | < 1000 |  |  |  | 
C[C@@H]1CC[C@@H](c2ccc(C(N)=O)s2)N(C(=O)C(=O)Nc2cncc(C(N)=O)c2)C1 (single isomer, unassigned) [Compound 792] | 50 to 500 | < 50 | < 50 | > 1000 | < 100 | A (an IC50 ratio greater than or equal to 10 fold) |  | 1000 to 10000 |  |  |  | 
Cc1cc(NC(=O)C(=O)N2C[C@H](C)CC[C@H]2c2ccc(S(C)(=O)=O)cc2)cnc1N (racemic) [Compound 643, N-(6-amino-5-methyl-3-pyridyl)-2-[(2R,5S)-5-methyl-2-(4-methylsulfonylphenyl)-1-piperidyl]-2-oxo-acetamide] | 50 to 500 | 50 to 500 | 50 to 500 | > 1000 |  | C (an IC50 ratio of less than 3 fold) |  |  | 100 to 1000 | 1000 to 10000 |  | 
C[C@H]1CC[C@H]([C@@H]2CCC[C@H](O)C2)N(C(=O)C(=O)Nc2cncc(C(N)=O)c2)C1 (single isomer, unassigned) [Compound 529] | > 500 | > 500 | > 500 | > 1000 |  | C (an IC50 ratio of less than 3 fold) |  |  | > 1000 | > 10000 |  | 
CNc1ccc([C@@H]2CC[C@@H](C)CN2C(=O)C(=O)Nc2cncc(C(N)=O)c2)nc1 (racemic) [Compound 907, 5-[[2-[(2R,5S)-5-methyl-2-[5-(methylamino)-2-pyridyl]-1-piperidyl]-2-oxo-acetyl]amino]pyridine-3-carboxamide] | 50 to 500 | 50 to 500 | 50 to 500 | > 1000 |  | A (an IC50 ratio greater than or equal to 10 fold) | 1000 to 10000 |  | < 100 |  |  | 
Cc1cc(NC(=O)C(=O)N2CCCCC2C(C)C)cnc1N (racemic) [Compound 135, N-(6-amino-5-methyl-3-pyridyl)-2-(2-isopropyl-1-piperidyl)-2-oxo-acetamide] | 50 to 500 |  | < 50 | > 1000 |  | A (an IC50 ratio greater than or equal to 10 fold) | > 10000 |  | 100 to 1000 |  | 50 to 500 | 
C[C@@H]1CC[C@@H](c2cc(Cl)cc(Cl)c2)N(C(=O)C(=O)Nc2cncc(C(N)=O)c2)C1 (single isomer, unassigned) [Compound 490] | > 500 | > 500 | > 500 | > 1000 | > 1000 | C (an IC50 ratio of less than 3 fold) | > 10000 |  |  |  |  | 
COc1ncc(NC(=O)C(=O)N2C[C@H](C)CC[C@H]2c2ccc(NC(C)=O)nc2)cc1C(N)=O (single isomer, unassigned) [Compound 930] | 50 to 500 | 50 to 500 | < 50 | > 1000 |  | A (an IC50 ratio greater than or equal to 10 fold) | 1000 to 10000 |  | < 100 |  |  | 
Cc1cccc(C2CCCCN2C(=O)C(=O)Nc2cnc(N)c(C)c2)c1 (racemic) [Compound 31, N-(6-Amino-5-methyl-3-pyridyl)-2-[2-(m-tolyl)-1-piperidyl]-2-oxo-acetamide] | 50 to 500 |  | < 50 | > 1000 |  | A (an IC50 ratio greater than or equal to 10 fold) | > 10000 |  | 100 to 1000 |  | 50 to 500 | 
Cc1cc(NC(=O)C(=O)N2C[C@H](C)CC[C@H]2c2ccc(N3CCN(C)CC3)cc2)cnc1N (single isomer, unassigned) [Compound 1193] | > 500 | > 500 | > 500 | > 1000 | > 1000 |  | > 10000 |  |  |  |  | 
Cc1nc2cc([C@H]3CC[C@H](C)CN3C(=O)C(=O)Nc3cnc(N)c(C4CC4)c3)ccc2s1 (single isomer, unassigned) [Compound 1313] | 50 to 500 |  | < 50 | 100 to 1000 |  | A (an IC50 ratio greater than or equal to 10 fold) |  |  | < 100 |  | < 50 | < 1000
COc1ncc(NC(=O)C(=O)N2C[C@@H](C)CC[C@@H]2c2ccc3sc([C@@H]4CCN(C)C4)nc3c2)cc1C(N)=O (racemic) [Compound 1278, 2-methoxy-5-[[2-oxo-2-[rac-(2R,5S)-5-methyl-2-[2-[rac-(3R)-1-methylpyrrolidin-3-yl]-1,3-benzothiazol-5-yl]-1-piperidyl]acetyl]amino]pyridine-3-carboxamide] | < 50 |  | < 50 | < 100 |  | A (an IC50 ratio greater than or equal to 10 fold) |  |  | < 100 |  | < 50 | < 1000
NC(=O)c1cncc(NC(=O)C(=O)N2C[C@@H]3CC[C@@H](C3)[C@@H]2c2cccs2)c1 (racemic) [Compound 79, 5-[[2-oxo-2-[(1S,4S,5R)-4-(2-thienyl)-3-azabicyclo[3.2.1]octan-3-yl]acetyl]amino]pyridine-3-carboxamide] | 50 to 500 |  | 50 to 500 | > 1000 |  | A (an IC50 ratio greater than or equal to 10 fold) | > 10000 |  | 100 to 1000 |  | > 500 | 
COc1ncc(NC(=O)C(=O)N2C[C@@H](C)CC[C@@H]2c2ccn(-c3cc[nH]n3)n2)cc1C(N)=O (single isomer, unassigned) [Compound 881] | > 500 | > 500 | > 500 | > 1000 | > 1000 | B (an IC50 ratio greater than or equal to 3 fold but lower than 10 fold) |  | > 10000 |  |  |  | 
Cc1cc(NC(=O)C(=O)N2C[C@H](C)CC[C@H]2c2ccc(CO)cc2)cnc1N (single isomer, unassigned) [Compound 802] | > 500 | > 500 | > 500 | > 1000 | > 1000 | B (an IC50 ratio greater than or equal to 3 fold but lower than 10 fold) |  | > 10000 |  |  |  | 
Cc1cc(NC(=O)C(=O)N2C[C@H](C)CC[C@H]2c2cc(F)c(F)c(Cl)c2)cnc1N (single isomer, unassigned) [Compound 847] | > 500 | > 500 | > 500 | > 1000 | > 1000 | C (an IC50 ratio of less than 3 fold) |  | > 10000 |  |  |  | 
COc1ncc(NC(=O)C(=O)N2C[C@@H](C)CC[C@@H]2c2ccc3sccc3c2)cc1C(N)=O (single isomer, unassigned) [Compound 618] | < 50 | < 50 | < 50 | > 1000 |  | A (an IC50 ratio greater than or equal to 10 fold) |  |  | < 100 | < 1000 |  | 
C[C@H]1CC[C@H](c2cc(F)c(F)c(F)c2)N(C(=O)C(=O)Nc2cncc(C(N)=O)c2)C1 (single isomer, unassigned) [Compound 477] | 50 to 500 | 50 to 500 | < 50 | > 1000 | < 100 | A (an IC50 ratio greater than or equal to 10 fold) | 1000 to 10000 |  |  |  |  | 
